Assays:
human TNFα trimer = target: T1, human TNFα trimer (Homo sapiens, UniProt P01375); experiment: RMSD of crystal structure of compound-bound TNFα trimer to Reference Structure Compound 34; conditions: Cα atoms of β-sheet residues, all three subunits, PyMOL
T1 construct: His6Smt-tag (N, cleaved yes); made in house; host or cells: E. coli (vector pEMB54)
Procedure: Cells were pre-cultured at 37° C. in rich media, induced with the addition of 0.1% arabinose and allowed to express overnight at 25° C. in vector pEMB54. This vector introduces a cleavable N-terminal His6Smt-tag. The cells were lysed and purified by Ni-NTA chelate chromatography. The fusion protein was eluted with buffer containing imidazole and cleaved by the addition of protease. The final cleaved TNFα protein was purified by a subtractive Ni chelate chromatography step to remove the fusion tag and further purified by size exclusion chromatography to remove the remaining impurities. The final TNFα product was typically concentrated to 20.0 mg/ml and flash frozen in liquid nitrogen.
Purified human TNF[…] (20.0 mg/ml, VC 2043) was diluted to 4-7 mg/ml in 10 mM HEPES pH 7.5, 150 mM NaCl buffer followed by overnight incubation at 4° C. with 0.3-0.5 mM compound (1-2 molar excess). The TNF[…] compound complexes were crystallized by sitting drop vapor diffusion by mixing 0.5 μl of complex with 0.5 μl of 21.44% PEG 3350, 100 mM Tris, pH 9.0 (UCB1474433); or 22.0% PEG 3350, 100 mM glycine, 100 mM Tris, pH 8.5 (UCB1480595); or 25.6% PEG 3350, 100 mM Tris, pH 8.3, 3% xylitol (UCB5143079) or other formulation with varying precipitant concentration or additives over 100 μl of the same crystallization solution. Other formulations for other compounds include a range of PEG 3350 of 8-28%. Other PEG-like additives include PEG 1000 (8-18%) or PEG 2000 (10-13%). Other additives include MPD (5-13%) or 200 mM NaCl. Other buffers include 100 mM Hepes (pH 7-8), 100 mM Tris or bis-Tris (pH 6.7-9.0). Other non-PEG 3350 crystallization solutions consist of PEG 2000 (14-19%), 100 mM Hepes, pH 8, 25 mM arginine; or 17% PEG 10000, 200 mM ammonium acetate, 100 mM bis-Tris, pH 5.5; or 30% PEG 2000 MME, 100 mM sodium acetate, 100 mM Mes, pH 6.5.
Crystals were briefly soaked in ethylene glycol and/or vitrified directly in liquid nitrogen for data collection.
X-ray diffraction data were collected from a synchrotron source at a wavelength, most frequently, of 0.976484 Å and recorded on CCD detector. […] The structure of the human TNF[…] (VC 2043) complexed with compound was solved by molecular replacement using Phaser with input model of 1TNF. […] Iterative manual model building using Coot (Emsley and Cowtan, 2004) and Refmac (Murshudov et al., 1997) continued until R and Rfree converged. […] The resolution of the structures was most frequently around 2.15 Å.
Root mean squared deviation (RMSD) calculations were carried out to ascertain the distance of each of the crystal structures of distorted TNFα trimer to a reference structure.
RMSD calculations were done using the program PyMOL (www.pymol.org). In this example version 1.7. was used. The cmd.rms PyMOL command was used with defined pairs of atoms. The atoms used were the backbone Ca's of certain residues within the β-strands of TNFα. The residue numbers used are shown below:
These residue numbers are those within the published structure of TNFα with PDB code 1A8M and within the distorted TNFα trimer structures of this invention. The residue numbers are also according to the sequence of SEQ ID NO:36. The residues in each of the three chains with the TNFα structures, (labelled A, B, and C according to our instructions) were used.
The command cmd.rms was used with the following arguments:
rms=cmd.rms(“(moving)”, “(target)”, matchmaker=4, quiet=0, cycles=0)
where “(moving)” is the selection of atoms in a given TNFα structure and “(target)” is the selection of equivalent atoms within the reference structure.
The RMSD was calculated for each structure against all others. The “representative structure” or “Reference Structure” was chosen to be the one with the lowest sum RMSD to all others—the structure “Compound 34” or “Compound34.pdb”.
Reference Structure (Compound 34) and Query Structure (Compound 64) were overlaid (see FIG. 17 with Reference Structure emboldened) by: • 1. […]

TNFR2 = experiment: Membrane TNF - TNFR2 signalling (NS0-mTNF cells with expanded primary human T cells); type: cell-based; conditions: compound bound to membrane TNFα on NS0 cells
Procedure: A murine B cell line (NS0-mTNF) stably expressing non-cleavable human membrane TNF due to a mutation at the TACE cleavage site was used to trigger TNFR2 signalling in PHA-L and IL-2 expanded primary human T cells. […] TNFR1 was also present on these cells but was blocked using a UCB mouse anti-human-TNFR1 antibody 5R16.
NS0-mTNF cells were cultured with 10 μM NCEs for 1 hour to allow binding of Compounds to membrane TNF. T cells were then mixed with the NS0-mTNF cells and following a brief spin to allow cell-cell contact, cells were incubated for 5 min and then lysed in lysis buffer. […] First TRAF-2 recruitment to the TNFR2 receptor was measured in Co-immunoprecipitation experiments as a measure of membrane proximal signalling. After lysis of cells TNFR2 was isolated from the lysate using polyclonal goat anti-human TNFR2 antibodies followed by protein G sepharose bead purification. TNFR2 associated TRAF-2 was then measured in immunoblots after running the purified TNFR2 preparation on a SDS-PAGE. In addition, the whole cell lysate was also sampled for the presence of pNFκB using SDS-PAGE and pNFκB specific immunoblots.
• PBMC from 3 three different donors were cultured in 6 well plates with 10×10^6 cells per well in 5 ml of RPMI1640 supplemented with 10% FCS, 1% human serum, HEPES GlutaMAX, 25 U/ml hIL-2 (Roche) and 2 μg/ml PHA-L (Sigma) to grow out T cells • after 3 days cells were resuspended and cultured in 75 cm^2 flasks with the same media as above, but lacking the PHA-L • growth of culture was monitored and media was changed every 3 days.
This is a 2× solution • prepare 500 μl of 10×10^6 NS0-wt cells • After 1 h add 500 μl human T cells (50×10^6 cells/test) in human media at 37° C. T cells were preincubated for 15 min @37° C. with 50 μg/ml 5R16 anti-TNFR1 Fab-PEG to block signalling via TNFR1 prior adding to the NS0 cells. […]

TNFα [1] = target: T2, TNFα (Homo sapiens, UniProt P01375); experiment: Surface plasmon resonance kinetics of compound binding to immobilised TNFα
Procedure: Surface plasmon resonance was used to measure the association rate, the dissociation rate and the affinity of the compounds of formulae (3) and (15) for TNFα (FIGS. 12A and B). For the purpose of this study a Biacore T100/T200 was used.
TNFα was immobilised at pH5 to a level of 5-8 KRU onto a CMS sensor in HBS-P buffer (10 mM HEPES pH 7.4, 0.15 M NaCl, 0.005% Surfactant P20, BIAcore, GE Healthcare). The TNFα was then equilibrated in HBS-P with 5% DMSO for at least 5 hours. The samples were diluted from 10 mM stocks into DMSO matched buffer and left to solubilise for at least 5 hours. The flow rate was […].
This assay was performed by adding 4 or 5 concentrations of compound starting from a highest concentration of 25 μM for compound of formula (3) and 1 μM for compound of formula (15) and then serially diluting this sample. Background subtraction binding curves were analysed using the BIAevaluation software following standard procedures. Binding, affinity and kinetic parameters were determined using Biacore software. The kinetic data were fitted using the levenberg marquardt algorithm.
Target sequence in this assay (P01375 77-233 limits assumed): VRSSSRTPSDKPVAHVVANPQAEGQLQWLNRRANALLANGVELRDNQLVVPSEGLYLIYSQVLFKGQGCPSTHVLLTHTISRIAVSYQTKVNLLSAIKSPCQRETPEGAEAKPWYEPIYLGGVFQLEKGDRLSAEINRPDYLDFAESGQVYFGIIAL

TNFα [2] = target: T2, TNFα; experiment: Meso Scale Discovery (MSD) assay of TNFα binding to plate-coated TNFR-ECD; design: purchased R&D Systems; conditions: single point, 100 μM, 5% DMSO
Procedure: 384 well uncoated plates (standard binding) Meso Scale Discovery plates (MSD) were coated overnight with the extracellular domain of TNFR (TNFR-ECD) (10 μl, 1 ug/mL in PBS). To ensure even distribution plates were centrifuged at 1000 rpm for 2 minutes. The plates were then sealed and stored at +4° C. overnight.
The wells of the plates were then washed three times in 50 μl phosphate buffered saline pH 6.5 (PB) with 0.05% Tween 20 (wash buffer), and then blocked with 50 μl 2% BSA. The plates were then incubated at room temperature on a shaker (600 rpm) for 2 hours. After this incubation plates were washed (3×50 μl wash buffer per well). During the blocking incubation, compounds of formulae (3) and (15) were pre-incubated with TNF (R&D Systems) prior to addition to the pre-blocked and washed MSD plates. For a single point assay as shown in FIG. 2A the compounds were assayed at a final concentration of 100 μM (5% final v/v DMSO). […]
The plates were then washed (3×50 μl wash buffer per well), followed by the addition of 50 μl MSD Read buffer T plus surfactant (diluted 1 in 2 in H2O) and read on a SECTOR Imager 6000.
For single point assays percentage inhibition was calculated using a control sample without compound.
For EC50s determination results were calculated by standard means using a 4 parameter logistic model (sigmoidal dose response model).
Target sequence in this assay (P01375 77-233 limits assumed): as above
Target sequence in this assay (P19438 30-211 partner limits assumed): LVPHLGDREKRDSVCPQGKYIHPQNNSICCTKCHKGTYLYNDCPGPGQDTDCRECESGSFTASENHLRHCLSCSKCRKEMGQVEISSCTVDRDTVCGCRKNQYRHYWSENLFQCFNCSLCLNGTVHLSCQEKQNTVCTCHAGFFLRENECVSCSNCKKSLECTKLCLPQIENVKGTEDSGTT

T1 sequence (P01375 with tags, fused parts or gaps): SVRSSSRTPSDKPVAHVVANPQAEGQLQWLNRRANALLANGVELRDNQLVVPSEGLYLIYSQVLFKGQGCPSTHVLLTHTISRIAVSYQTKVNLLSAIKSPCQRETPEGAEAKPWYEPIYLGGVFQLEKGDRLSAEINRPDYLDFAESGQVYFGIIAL

| RMSD (Å) with Compound 34 (human TNFα trimer) | kon (TNFα [1]) | % inhibition of TNFα binding to the TNF receptor (TNFα [2]) | Compound | TNFR2 specific membrane proximal (TRAF-2 recruitment to TNFR2) and downstream (pNFκB) signalling (TNFR2) |
| --- | --- | --- | --- | --- |
| 0.22 Å | 5470 M⁻¹ s⁻¹ |  | O=C1CCCN1c1cccc(OCc2nc3ccc(-c4ccc(=O)[nH]c4)cc3n2Cc2ccccc2OC(F)F)c1 [Compound 39] | does not impair |
|  |  | +80% | Cc1cc2occ(CN(C)CCN(C)Cc3cn(-c4cccc(C(F)(F)F)c4)c4ccccc34)c(=O)c2cc1C [SPD-304] |  |
| 0.47 Å |  |  | Cc1ccc(C)c(Cn2c(COc3ccc4ccncc4c3)nc3ccccc32)c1 [Compound 16] |  |

Further lines, the compound ahead of its results:

| Compound | RMSD (Å) with Compound 34 (human TNFα trimer) | kon (TNFα [1]) | % inhibition of TNFα binding to the TNF receptor (TNFα [2]) | TNFR2 specific membrane proximal (TRAF-2 recruitment to TNFR2) and downstream (pNFκB) signalling (TNFR2) |
| --- | --- | --- | --- | --- |
| Cc1nc2ccc(-c3ccc(N4CCNCC4)nc3)cn2c1Cc1ccccc1OC(F)F [Compound 43] | 0.36 Å |  |  | does not impair |
| Cc1ccc(C)c(Nn2c(C(O)c3ccncc3)nc3ccccc32)c1 (centres unmarked) [Compound 9] | 0.28 Å |  |  |  |

From patent publication US11674967B2, “Method of identifying potential inhibitors of APO TNFα trimers” (UCB BIOPHARMA SRL, priority 2015, dated 2023)
